The results in this text go back to patent US12509444B2, “Compounds and methods for CD73 modulation and indications therefor” (Plexxikon Inc., priority 2019, dated 2025).

Molecules are shown by their SMILES. pIC50: −log10 of the molar value.

For test [1], the target named is T1, Human CD73 (amino acid residues 27-549) (Homo sapiens, UniProt P21589).
T1 construct: Human CD73 (amino acid residues 27-549); His tag (N); made in house; host or cells: E. coli
T1 sequence (P21589 27-549): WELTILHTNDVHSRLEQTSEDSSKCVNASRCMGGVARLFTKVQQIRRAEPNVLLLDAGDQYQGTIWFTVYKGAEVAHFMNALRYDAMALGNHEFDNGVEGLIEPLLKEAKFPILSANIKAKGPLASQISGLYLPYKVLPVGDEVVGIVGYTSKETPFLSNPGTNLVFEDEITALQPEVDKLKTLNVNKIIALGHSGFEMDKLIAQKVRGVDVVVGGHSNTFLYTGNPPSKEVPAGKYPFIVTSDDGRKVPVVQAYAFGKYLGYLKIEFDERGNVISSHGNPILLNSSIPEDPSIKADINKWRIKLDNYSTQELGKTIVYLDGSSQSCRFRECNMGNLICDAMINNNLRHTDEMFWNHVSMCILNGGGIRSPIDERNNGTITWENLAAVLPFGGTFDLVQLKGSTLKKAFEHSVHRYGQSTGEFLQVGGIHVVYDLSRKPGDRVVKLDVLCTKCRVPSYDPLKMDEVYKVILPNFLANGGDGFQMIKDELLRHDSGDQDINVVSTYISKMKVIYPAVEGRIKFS
The experiment in a line: CD73 enzymatic assay (luciferase-based indirect assay, CellTiter-Glo). The test is classed as biochemical. The conditions noted are these: 0.4 nM CD73, 150 μM AMP, 1 hour at room temperature. The procedure, abridged: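 His-tagged human CD73 (27-549) from E. coli, 0.4 nM, with 150 μM AMP in 50 mM HEPES pH 7.4, 0.01% Tween 20; 1 h at room temperature. AMP remaining read by CellTiter-Glo 2.0 luminescence with 1 μM final ATP after 30 min. IC50 from nonlinear regression of % inhibition.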
For orientation: ATP-based viability assays read luminescence as a measure of living cells.

The target of test [2] is T2, human CD73 (Homo sapiens, UniProt P21589).
T2 construct: expressed in transfected cells
T2 sequence (P21589 27-549): T1 sequence (P21589 27-549)
Nature of the test: Inhibitor activity against CD73 in cell based assay (CD73 expressing CHO-K1 cells). The conditions noted are these: CHO-K1 cells expressing human CD73, 150 μM AMP, 4 hours of incubation; read-out: CHO-K1 CELL VARIANT: CD73 IC50. The procedure, abridged: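 Stably transfected CHO-K1 cells expressing human CD73 (1×10^4/well) incubated 4 h with compound (8-point 1:3 titration, top 10 μM final, 0.2% DMSO) and 150 μM AMP. Residual AMP in supernatant measured by CellTiter-Glo luminescence with 1 μM ATP after 30 min at room temperature; IC50 by nonlinear regression of percent inhibition vs high/low controls.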

The term pIC50 denotes the negative decadic logarithm of the IC50, by convention in mol/L. With `C[C@H]1CC[C@H](NC(=O)O[C@@H]2CCN(c3cn[nH]c(=O)c3Cl)C2)CC1` [P-0109, (R)-1-(5-chloro-6-oxo-1,6-dihydropyridazin-4-yl)pyrrolidin-3-yl ((1r,4R)-4-methylcyclohexyl)carbamate], the pIC50 in test [1] and in test [2] was 5.00 to 9.00 in each case.
Consider `C[C@H]1CC[C@@H](NC(=O)O[C@@H]2CCN(c3cn[nH]c(=O)c3Cl)C2)CC1` [P-0110, (R)-1-(5-chloro-6-oxo-1,6-dihydropyridazin-4-yl)pyrrolidin-3-yl ((1s,4S)-4-methylcyclohexyl)carbamate], for which the pIC50 in test [1] and in test [2] was 5.00 to 9.00 each time.
Take `O=C(NC1C2CC3CC(C2)CC1C3)O[C@@H]1CCN(c2cn[nH]c(=O)c2Cl)C1` (stereo partly drawn) [P-0111, (R)-1-(5-chloro-6-oxo-1,6-dihydropyridazin-4-yl)pyrrolidin-3-yl adamantan-2-ylcarbamate]: the pIC50 in test [1] and in test [2] was 5.00 to 9.00 throughout.
On to `O=C(NC1CCC(F)(F)C1)O[C@@H]1CCN(c2cn[nH]c(=O)c2Cl)C1` (stereo partly drawn) [P-0112, (R)-1-(5-chloro-6-oxo-1,6-dihydropyridazin-4-yl)pyrrolidin-3-yl (3,3-difluorocyclopentyl)carbamate], for which the pIC50 in test [1] and in test [2] was 5.00 to 9.00 in each case.
Turning to `CC1(NC(=O)O[C@@H]2CCN(c3cn[nH]c(=O)c3Cl)C2)CCOC1` (stereo partly drawn) [P-0113, (R)-1-(5-chloro-6-oxo-1,6-dihydropyridazin-4-yl)pyrrolidin-3-yl (3-methyltetrahydrofuran-3-yl)carbamate], the pIC50 in test [1] and in test [2] was 5.00 to 9.00 each time.
As to `N#CC1CCC(NC(=O)O[C@@H]2CCN(c3cn[nH]c(=O)c3Cl)C2)CC1` (stereo partly drawn) [P-0114, (R)-1-(5-chloro-6-oxo-1,6-dihydropyridazin-4-yl)pyrrolidin-3-yl (4-cyanocyclohexyl)carbamate], the pIC50 in test [1] and in test [2] was 5.00 to 9.00 throughout.
For `O=C(NC1CC2(CCC2)C1)O[C@@H]1CCN(c2cn[nH]c(=O)c2Cl)C1` [P-0115, (R)-1-(5-chloro-6-oxo-1,6-dihydropyridazin-4-yl)pyrrolidin-3-yl spiro[3.3]heptan-2-ylcarbamate], the pIC50 in test [1] and in test [2] was 5.00 to 9.00 each time.
Take `CS(=O)(=O)NC1CCC(NC(=O)O[C@@H]2CCN(c3cn[nH]c(=O)c3Cl)C2)CC1` (stereo partly drawn) [P-0116, (R)-1-(5-chloro-6-oxo-1,6-dihydropyridazin-4-yl)pyrrolidin-3-yl (4-(methylsulfonamido)cyclohexyl)carbamate]: the pIC50 in test [1] and in test [2] was 5.00 to 9.00 throughout.
For the compound `O=C(NC1CC2CCC1O2)O[C@@H]1CCN(c2cn[nH]c(=O)c2Cl)C1` (stereo partly drawn) [P-0117, (R)-1-(5-chloro-6-oxo-1,6-dihydropyridazin-4-yl)pyrrolidin-3-yl (7-oxabicyclo[2.2.1]heptan-2-yl)carbamate], the pIC50 in test [1] and in test [2] was 5.00 to 9.00 throughout.
Take `O=C(NC1(C2CC2)CC1)O[C@@H]1CCN(c2cn[nH]c(=O)c2Cl)C1` [P-0118, (R)-1-(5-chloro-6-oxo-1,6-dihydropyridazin-4-yl)pyrrolidin-3-yl [1,1′-bi(cyclopropan)]-1-ylcarbamate]: the pIC50 in test [1] and in test [2] was 5.00 to 9.00 each time.
Turning to `O=C(NC1CC(O)C1)O[C@@H]1CCN(c2cn[nH]c(=O)c2Cl)C1` (stereo partly drawn) [P-0119, (R)-1-(5-chloro-6-oxo-1,6-dihydropyridazin-4-yl)pyrrolidin-3-yl (3-hydroxycyclobutyl)carbamate], the pIC50 in test [1] and in test [2] was 5.00 to 9.00 in each case.
For the compound `O=C(NC1CCN(C2CCCC2)CC1)O[C@@H]1CCN(c2cn[nH]c(=O)c2Cl)C1` [P-0121, (R)-1-(5-chloro-6-oxo-1,6-dihydropyridazin-4-yl)pyrrolidin-3-yl (1-cyclopentylpiperidin-4-yl)carbamate], the pIC50 in test [1] and in test [2] was 5.00 to 9.00 throughout.
As for `CC(C)N1CCC(NC(=O)O[C@@H]2CCN(c3cn[nH]c(=O)c3Cl)C2)CC1` [P-0122, (R)-1-(5-chloro-6-oxo-1,6-dihydropyridazin-4-yl)pyrrolidin-3-yl (1-isopropylpiperidin-4-yl)carbamate], the pIC50 in test [1] and in test [2] was 5.00 to 9.00 each time.
For `O=C(NC1CCN(c2ncccn2)CC1)O[C@@H]1CCN(c2cn[nH]c(=O)c2Cl)C1` [P-0123, (R)-1-(5-chloro-6-oxo-1,6-dihydropyridazin-4-yl)pyrrolidin-3-yl (1-(pyrimidin-2-yl)piperidin-4-yl)carbamate], the pIC50 in test [1] and in test [2] was 5.00 to 9.00 in each case.
For the compound `CC(C)(C)OC(=O)NC1CCC(NC(=O)O[C@@H]2CCN(c3cn[nH]c(=O)c3Cl)C2)CC1` (stereo partly drawn) [P-0124, (R)-tert-butyl (1-(5-chloro-6-oxo-1,6-dihydropyridazin-4-yl)pyrrolidin-3-yl) cyclohexane-1,4-diyldicarbamate], the pIC50 in test [1] and in test [2] was 5.00 to 9.00 in each case.
On to `NC1CCC(NC(=O)O[C@@H]2CCN(c3cn[nH]c(=O)c3Cl)C2)CC1` (stereo partly drawn) [P-0125, (R)-1-(5-chloro-6-oxo-1,6-dihydropyridazin-4-yl)pyrrolidin-3-yl (4-aminocyclohexyl)carbamate], for which the pIC50 in test [1] and in test [2] was 5.00 to 9.00 in each case.
As for `N#Cc1c(N2CC[C@@H](OC(=O)NC3CCCCC3)C2)cn[nH]c1=O` [P-0127, (R)-1-(5-cyano-6-oxo-1,6-dihydropyridazin-4-yl)pyrrolidin-3-yl cyclohexylcarbamate], the pIC50 in test [1] and in test [2] was 5.00 to 9.00 in each case.
With `CS(=O)(=O)N[C@H]1CC[C@@H](NC(=O)O[C@@H]2CCN(c3cn[nH]c(=O)c3Cl)C2)CC1` [P-0128, (R)-1-(5-chloro-6-oxo-1,6-dihydropyridazin-4-yl)pyrrolidin-3-yl ((1s,4S)-4-(methylsulfonamido)cyclohexyl)carbamate], the pIC50 in test [1] and in test [2] was 5.00 to 9.00 throughout.
Consider `CS(=O)(=O)N[C@H]1CC[C@H](NC(=O)O[C@@H]2CCN(c3cn[nH]c(=O)c3Cl)C2)CC1` [P-0129, (R)-1-(5-chloro-6-oxo-1,6-dihydropyridazin-4-yl)pyrrolidin-3-yl ((1r,4R)-4-(methylsulfonamido)cyclohexyl)carbamate], for which the negative-log IC50 (pIC50) in test [1] and in test [2] was 5.00 to 9.00 in each case.
For `O=C(NC1CCCCC1)O[C@@H]1CCN(c2cnn(-c3cccc(C(=O)O)c3)c(=O)c2Cl)C1` [P-0130, (R)-3-(5-chloro-4-(3-((cyclohexylcarbamoyl)oxy)pyrrolidin-1-yl)-6-oxopyridazin-1(6H)-yl)benzoic acid], the pIC50 in test [1] and in test [2] was 4.00 to 5.00 each time.
On to `O=C(N[C@H]1CC[C@H](O)CC1)O[C@@H]1CCN(c2cn[nH]c(=O)c2Cl)C1` [P-0131, (R)-1-(5-chloro-6-oxo-1,6-dihydropyridazin-4-yl)pyrrolidin-3-yl ((1r,4R)-4-hydroxycyclohexyl)carbamate], for which the negative logarithm of the IC50 (pIC50) in test [1] and in test [2] was 5.00 to 9.00 each time.
With `O=C(N[C@H]1CCCOC1)O[C@@H]1CCN(c2cn[nH]c(=O)c2Cl)C1` [P-0132, (R)-1-(5-chloro-6-oxo-1,6-dihydropyridazin-4-yl)pyrrolidin-3-yl ((S)-tetrahydro-2H-pyran-3-yl)carbamate], the pIC50 in test [1] and in test [2] was 5.00 to 9.00 in each case.
For `CC1(NC(=O)O[C@@H]2CCN(c3cn[nH]c(=O)c3Cl)C2)CCOCC1` [P-0133, (R)-1-(5-chloro-6-oxo-1,6-dihydropyridazin-4-yl)pyrrolidin-3-yl (4-methyltetrahydro-2H-pyran-4-yl)carbamate], the pIC50 in test [1] and in test [2] was 5.00 to 9.00 throughout.
On to `O=C(NC1(C(F)(F)F)CC1)O[C@@H]1CCN(c2cn[nH]c(=O)c2Cl)C1` [P-0134, (R)-1-(5-chloro-6-oxo-1,6-dihydropyridazin-4-yl)pyrrolidin-3-yl (1-(trifluoromethyl)cyclopropyl) carbamate], for which the pIC50 in test [1] and in test [2] was 5.00 to 9.00 each time.
Consider `O=C(N[C@@H]1CCN(c2cn[nH]c(=O)c2Cl)C1)O[C@@H]1CCN(c2cn[nH]c(=O)c2Cl)C1` [P-0135, (R)-1-(5-chloro-6-oxo-1,6-dihydropyridazin-4-yl)pyrrolidin-3-yl ((R)-1-(5-chloro-6-oxo-1,6-dihydropyridazin-4-yl)pyrrolidin-3-yl)carbamate], for which the pIC50 in test [1] and in test [2] was 5.00 to 9.00 throughout.
Consider `O=C(N[C@H]1CCN(c2cn[nH]c(=O)c2Cl)C1)O[C@@H]1CCN(c2cn[nH]c(=O)c2Cl)C1` [P-0136, (R)-1-(5-chloro-6-oxo-1,6-dihydropyridazin-4-yl)pyrrolidin-3-yl ((S)-1-(5-chloro-6-oxo-1,6-dihydropyridazin-4-yl)pyrrolidin-3-yl)carbamate], for which the pIC50 in test [1] and in test [2] was 5.00 to 9.00 throughout.
